The supplement of paper PMC10307832

How the values were obtained:
Assay in all cases: relative viability (nuclei count vs DMSO), 5 days (fraction); higher = more cells survive
JZL-184 + OSI-027 = compound: C1CN(CCC1C(C2=CC3=C(C=C2)OCO3)(C4=CC5=C(C=C4)OCO5)O)C(=O)OC6=CC=C(C=C6)[N+](=O)[O-] [JZL-184] + COc1cccc2cc(-c3nc([C@H]4CC[C@H](C(=O)O)CC4)n4ncnc(N)c34)[nH]c12 [OSI-027] (partner 0.5 µM)
In short: (§1)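 Values are medians from duplicate plates. Each reflects relative viability, defined as the nuclei count of treated wells over that of vehicle wells. Lung cancer cell lines in 1536-well plates were pin-tool dosed one day after seeding with one drug alone or with a fixed anchor-drug dose plus five library-drug doses (not always all listed) in √10 steps, then fixed, stained and imaged at 4× after 5 days.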

JZL-184 + Navitoclax = compound: C1CN(CCC1C(C2=CC3=C(C=C2)OCO3)(C4=CC5=C(C=C4)OCO5)O)C(=O)OC6=CC=C(C=C6)[N+](=O)[O-] [JZL-184] + CC1(C)CCC(c2ccc(Cl)cc2)=C(CN2CCN(c3ccc(C(=O)NS(=O)(=O)c4ccc(N[C@H](CCN5CCOCC5)CSc5ccccc5)c(S(=O)(=O)C(F)(F)F)c4)cc3)CC2)C1 [Navitoclax] (partner 0.5 µM)
In short: as §1

JZL-184 + Pictilisib = compound: C1CN(CCC1C(C2=CC3=C(C=C2)OCO3)(C4=CC5=C(C=C4)OCO5)O)C(=O)OC6=CC=C(C=C6)[N+](=O)[O-] [JZL-184] + CS(=O)(=O)N1CCN(Cc2cc3nc(-c4cccc5[nH]ncc45)nc(N4CCOCC4)c3s2)CC1 [Pictilisib] (partner 1 µM)
In short: as §1

JZL-184 + Lapatinib = compound: C1CN(CCC1C(C2=CC3=C(C=C2)OCO3)(C4=CC5=C(C=C4)OCO5)O)C(=O)OC6=CC=C(C=C6)[N+](=O)[O-] [JZL-184] + CS(=O)(=O)CCNCc1ccc(-c2ccc3ncnc(Nc4ccc(OCc5cccc(F)c5)c(Cl)c4)c3c2)o1 [Lapatinib] (partner 2 µM)
In short: as §1

JZL-184 + Bortezomib = compound: C1CN(CCC1C(C2=CC3=C(C=C2)OCO3)(C4=CC5=C(C=C4)OCO5)O)C(=O)OC6=CC=C(C=C6)[N+](=O)[O-] [JZL-184] + CC(C)C[C@H](NC(=O)[C@H](Cc1ccccc1)NC(=O)c1cnccn1)B(O)O [Bortezomib] (partner 0.002 µM)
In short: as §1

Cell Line	relative viability (JZL-184 + OSI-027; first compound 0.04 µM)	relative viability (JZL-184 + OSI-027; first compound 0.4 µM)	relative viability (JZL-184 + OSI-027; first compound 1.265 µM)	relative viability (JZL-184 + OSI-027; first compound 4 µM)	relative viability (JZL-184 + Navitoclax; first compound 0.04 µM)	relative viability (JZL-184 + Navitoclax; first compound 0.4 µM)	relative viability (JZL-184 + Navitoclax; first compound 1.265 µM)	relative viability (JZL-184 + Navitoclax; first compound 4 µM)	relative viability (JZL-184 + Pictilisib; first compound 0.04 µM)	relative viability (JZL-184 + Pictilisib; first compound 0.4 µM)	relative viability (JZL-184 + Pictilisib; first compound 1.265 µM)	relative viability (JZL-184 + Pictilisib; first compound 4 µM)	relative viability (JZL-184 + Lapatinib; first compound 0.04 µM)	relative viability (JZL-184 + Lapatinib; first compound 0.4 µM)	relative viability (JZL-184 + Lapatinib; first compound 1.265 µM)	relative viability (JZL-184 + Lapatinib; first compound 4 µM)	relative viability (JZL-184 + Bortezomib; first compound 0.04 µM)	relative viability (JZL-184 + Bortezomib; first compound 0.4 µM)	relative viability (JZL-184 + Bortezomib; first compound 1.265 µM)	relative viability (JZL-184 + Bortezomib; first compound 4 µM)
NCI-H1944	0.421	0.397	0.448	0.412	0.948	1.08	1.08	1.02	0.345	0.318	0.34	0.335	0.805	0.803	0.875	0.846	–	–	–	–
LC-2-ad	0.92	0.926	0.907	0.734	0.467	0.248	0.491	0.369	0.546	0.388	0.658	0.461	1.19	0.889	1.05	0.952	1.16	0.868	0.99	0.942
NCI-H358	0.826	0.716	0.79	0.712	–	–	–	–	0.353	0.399	0.319	0.444	0.52	0.418	0.448	0.436	–	–	–	–
NCI-H2170	0.721	0.758	0.759	0.682	0.66	0.589	0.621	0.547	0.341	0.309	0.332	0.331	0.302	0.252	0.285	0.275	–	–	–	–
NCI-H2342	0.614	0.548	0.617	0.704	–	–	–	–	–	–	–	–	–	–	–	–	–	–	–	–
SW 900	0.596	0.536	0.566	0.5	–	–	–	–	–	–	–	–	–	–	–	–	–	–	–	–
A-427	0.469	0.435	0.479	0.474	1.02	0.879	0.962	0.992	0.797	0.639	0.852	0.697	1.17	1.05	1.01	1.09	1.05	0.965	1	0.918
NCI-H1666	0.974	0.908	0.903	0.866	1.02	0.825	1.16	1.02	0.483	0.517	0.5	0.491	0.647	0.65	0.585	0.633	0.98	0.714	0.868	0.904
LOU-NH91	0.742	0.684	0.788	0.712	0.763	0.71	0.886	0.718	0.535	0.471	0.514	0.532	0.783	0.741	0.845	0.727	0.51	0.419	0.511	0.471
ABC-1	0.644	0.441	0.667	0.448	–	–	–	–	0.946	0.71	0.898	0.625	1.09	0.947	1.07	1.19	0.336	0.352	0.375	0.247
